Assay results reported in ChEMBL document CHEMBL1201861, “Genomics of Drug Sensitity in Cancer screening data, Wellcome Trust Sanger Institute”.
pIC50: −log10 of the molar value.

Tests used:
Experiment in all cases: cells
[1] = test system: COLO-824; format: functional, cell-based, Homo sapiens; details: Homo sapiens, COLO-824
Description: SANGER: Inhibition of human COLO-824 cell growth in a cell viability assay.

[2] = test system: D-263MG; format: functional, cell-based, Homo sapiens; details: Homo sapiens, D-263MG
Description: SANGER: Inhibition of human D-263MG cell growth in a cell viability assay.

[3] = test system: DB; format: functional, cell-based; details: Homo sapiens
Description: SANGER: Inhibition of human DB cell growth in a cell viability assay.

[4] = test system: DOHH-2; format: functional, cell-based; details: Homo sapiens;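 also: growth inhibition of human DOHH-2 cells, read out with a cell viability assay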
Description: SANGER: Inhibition of human DOHH-2 cell growth in a cell viability assay.

[5] = test system: DOK; format: functional, cell-based, Homo sapiens; details: Homo sapiens, DOK;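 also: cell viability assay read-out, values reflect inhibition of cell growth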
Description: SANGER: Inhibition of human DOK cell growth in a cell viability assay.

[6] = test system: EM-2; format: functional, cell-based; details: Homo sapiens;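 also: growth inhibition of EM-2 cells, read out with a cell viability assay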
Description: SANGER: Inhibition of human EM-2 cell growth in a cell viability assay.

[7] = test system: ES6; format: functional, cell-based, Homo sapiens; details: Homo sapiens, ES6;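 also: growth inhibition of human ES6 cells, read out with a cell viability assay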
Description: SANGER: Inhibition of human ES6 cell growth in a cell viability assay.

[8] = test system: EW-16; format: functional, cell-based, Homo sapiens; details: Homo sapiens, EW-16;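 also: growth inhibition of human EW-16 cells, read out as cell viability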
Description: SANGER: Inhibition of human EW-16 cell growth in a cell viability assay.

[9] = test system: EOL1; format: functional, cell-based; details: Homo sapiens;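 also: growth inhibition of EoL-1 cells, read out by a cell viability assay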
Description: SANGER: Inhibition of human EoL-1-cell cell growth in a cell viability assay.

[10] = test system: GAMG; format: functional, cell-based, Homo sapiens; details: Homo sapiens, GAMG;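 also: cell growth inhibition measured by a viability assay in the GAMG human cell line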
Description: SANGER: Inhibition of human GAMG cell growth in a cell viability assay.

[11] = test system: GR-ST; format: functional, cell-based; details: Homo sapiens
Description: SANGER: Inhibition of human GR-ST cell growth in a cell viability assay.

[12] = test system: HCC1569; format: functional, cell-based, Homo sapiens; details: Homo sapiens, HCC1569;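 also: growth inhibition of human HCC1569 cells, read out with a cell viability assay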
Description: SANGER: Inhibition of human HCC1569 cell growth in a cell viability assay.

[13] = test system: HCC 2998; format: functional, cell-based, Homo sapiens; details: Homo sapiens, HCC 2998;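 also: growth inhibition of human HCC2998 cells, measured with a cell viability read-out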
Description: SANGER: Inhibition of human HCC2998 cell growth in a cell viability assay.

[14] = test system: HOP-92; format: functional, cell-based, Homo sapiens; details: Homo sapiens, HOP-92;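 also: cell viability readout, with IC50 reflecting inhibition of HOP-92 cell growth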
Description: SANGER: Inhibition of human HOP-92 cell growth in a cell viability assay.

[15] = test system: HT; format: functional, cell-based; details: Homo sapiens
Description: SANGER: Inhibition of human HT cell growth in a cell viability assay.

[16] = test system: KINGS-1; format: functional, cell-based, Homo sapiens; details: Homo sapiens, KINGS-1;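 also: cell viability assay measuring suppression of KINGS-1 cell growth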
Description: SANGER: Inhibition of human KINGS-1 cell growth in a cell viability assay.

[17] = test system: KM12; format: functional, cell-based, Homo sapiens; details: Homo sapiens, KM12;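 also: KM12 cell growth inhibition, read out with a cell viability assay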
Description: SANGER: Inhibition of human KM12 cell growth in a cell viability assay.

[18] = test system: KY821; format: functional, cell-based; details: Homo sapiens;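 also: growth inhibition of human KY821 cells, read out by a cell viability assay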
Description: SANGER: Inhibition of human KY821 cell growth in a cell viability assay.

[19] = test system: LS-1034; format: functional, cell-based, Homo sapiens; details: Homo sapiens, LS-1034
Description: SANGER: Inhibition of human LS-1034 cell growth in a cell viability assay.

[20] = test system: MHH-NB-11; format: functional, cell-based, Homo sapiens; details: Homo sapiens, MHH-NB-11;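 also: growth inhibition of human MHH-NB-11 cells, read out by a cell viability assay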
Description: SANGER: Inhibition of human MHH-NB-11 cell growth in a cell viability assay.

[21] = test system: MIA PaCa-2; format: functional, cell-based, Homo sapiens; details: Homo sapiens, MIA PaCa-2;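 also: growth inhibition of MIA PaCa-2 cells, read out with a cell viability assay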
Description: SANGER: Inhibition of human MIA-PaCa-2 cell growth in a cell viability assay.

[22] = test system: MKN-7; format: functional, cell-based, Homo sapiens; details: Homo sapiens, MKN-7;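 also: growth inhibition of MKN-7 cells, read out with a cell viability assay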
Description: SANGER: Inhibition of human MKN7 cell growth in a cell viability assay.

[23] = test system: NB6; format: functional, cell-based, Homo sapiens; details: Homo sapiens, NB6;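 also: growth inhibition of NB6 cells, read out by a cell viability assay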
Description: SANGER: Inhibition of human NB6 cell growth in a cell viability assay.

[24] = test system: NCI-H2030; format: functional, cell-based, Homo sapiens; details: Homo sapiens, NCI-H2030;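 also: growth inhibition of human NCI-H2030 cells, read out by a cell viability assay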
Description: SANGER: Inhibition of human NCI-H2030 cell growth in a cell viability assay.

[25] = test system: NCI-H2052; format: functional, cell-based, Homo sapiens; details: Homo sapiens, NCI-H2052;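 also: growth inhibition of NCI-H2052 cells, read out with a cell viability assay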
Description: SANGER: Inhibition of human NCI-H2052 cell growth in a cell viability assay.

[26] = test system: NCI-H727; format: functional, cell-based, Homo sapiens; details: Homo sapiens, NCI-H727;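 also: growth inhibition of human NCI-H727 cells, read out with a cell viability assay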
Description: SANGER: Inhibition of human NCI-H727 cell growth in a cell viability assay.

[27] = test system: NCI-N87; format: functional, cell-based, Homo sapiens; details: Homo sapiens, NCI-N87;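 also: growth inhibition of human NCI-N87 cells, read out with a cell viability assay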
Description: SANGER: Inhibition of human NCI-N87 cell growth in a cell viability assay.

[28] = test system: NH-12; format: functional, cell-based, Homo sapiens; details: Homo sapiens, NH-12;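 also: growth inhibition of NH-12 cells, read out with a cell viability assay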
Description: SANGER: Inhibition of human NH-12 cell growth in a cell viability assay.

[29] = test system: OMC-1; format: functional, cell-based, Homo sapiens; details: Homo sapiens, OMC-1;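 also: growth inhibition of the OMC-1 cell line, measured by a cell viability assay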
Description: SANGER: Inhibition of human OMC-1 cell growth in a cell viability assay.

[30] = test system: RS4-11; format: functional, cell-based; details: Homo sapiens;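 also: growth inhibition of RS4-11 cells, read out by a cell viability assay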
Description: SANGER: Inhibition of human RS4-11 cell growth in a cell viability assay.

[31] = test system: SBC-5; format: functional, cell-based, Homo sapiens; details: Homo sapiens, SBC-5;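 also: cell viability assay read-out, IC50 is the concentration that inhibits growth of the cells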
Description: SANGER: Inhibition of human SBC-5 cell growth in a cell viability assay.

[32] = test system: SK-MES-1; format: functional, cell-based, Homo sapiens; details: Homo sapiens, SK-MES-1;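 also: growth inhibition of human SK-MES-1 cells, read out with a cell viability assay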
Description: SANGER: Inhibition of human SK-MES-1 cell growth in a cell viability assay.

[33] = test system: SN12C; format: functional, cell-based, Homo sapiens; details: Homo sapiens, SN12C;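 also: growth inhibition of human SN12C cells, measured by a cell viability assay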
Description: SANGER: Inhibition of human SN12C cell growth in a cell viability assay.

[34] = test system: SW1710; format: functional, cell-based, Homo sapiens; details: Homo sapiens, SW1710;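 also: growth inhibition of SW1710 cells, determined with a cell viability assay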
Description: SANGER: Inhibition of human SW1710 cell growth in a cell viability assay.

[35] = test system: SW780; format: functional, cell-based, Homo sapiens; details: Homo sapiens, SW780;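 also: growth inhibition of the cells, read out with a cell viability assay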
Description: SANGER: Inhibition of human SW780 cell growth in a cell viability assay.

[36] = test system: SW837; format: functional, cell-based, Homo sapiens; details: Homo sapiens, SW837;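 also: growth inhibition of SW837 cells, determined with a cell viability assay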
Description: SANGER: Inhibition of human SW837 cell growth in a cell viability assay.

[37] = test system: SW 954; format: functional, cell-based, Homo sapiens; details: Homo sapiens, SW 954;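 also: growth inhibition of SW954 human cancer cells, read out as cell viability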
Description: SANGER: Inhibition of human SW954 cell growth in a cell viability assay.

[38] = test system: SW 962; format: functional, cell-based, Homo sapiens; details: Homo sapiens, SW 962;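 also: growth inhibition of human SW962 cells, read out by a cell viability assay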
Description: SANGER: Inhibition of human SW962 cell growth in a cell viability assay.

[39] = test system: 647-V; format: functional, cell-based, Homo sapiens; details: Homo sapiens, 647-V;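 also: growth inhibition of 647-V cells, read out with a cell viability assay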
Description: SANGER: Inhibition of human 647-V cell growth in a cell viability assay.

[40] = test system: A 172; format: functional, cell-based, Homo sapiens; details: Homo sapiens, A 172;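 also: growth inhibition of A172 cells, measured with a cell viability readout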
Description: SANGER: Inhibition of human A172 cell growth in a cell viability assay.

[41] = test system: A2058; format: functional, cell-based; details: Homo sapiens;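 also: reduction of A2058 cell growth, read out with a viability assay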
Description: SANGER: Inhibition of human A2058 cell growth in a cell viability assay.

[42] = test system: A704; format: functional, cell-based, Homo sapiens; details: Homo sapiens, A704;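 also: growth inhibition of human A704 cells, read out with a cell viability assay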
Description: SANGER: Inhibition of human A704 cell growth in a cell viability assay.

[43] = test system: AM-38; format: functional, cell-based, Homo sapiens; details: Homo sapiens, AM-38;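 also: growth inhibition of AM-38 cells of human origin, read out by a cell viability assay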
Description: SANGER: Inhibition of human AM-38 cell growth in a cell viability assay.

[44] = test system: BXPC-3; format: functional, cell-based, Homo sapiens; details: Homo sapiens, BXPC-3;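 also: growth inhibition of human BxPC-3 cells, read out by a cell viability assay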
Description: SANGER: Inhibition of human BxPC-3 cell growth in a cell viability assay.

[45] = test system: TE-11; format: functional, cell-based, Homo sapiens; details: Homo sapiens, TE-11;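 also: growth inhibition of human TE-11 cells, read out by a cell viability assay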
Description: SANGER: Inhibition of human TE-11 cell growth in a cell viability assay.

[46] = test system: TE-6; format: functional, cell-based, Homo sapiens; details: Homo sapiens, TE-6;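 also: growth inhibition of TE-6 cells, read out with a cell viability assay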
Description: SANGER: Inhibition of human TE-6 cell growth in a cell viability assay.

[47] = test system: TGBC1TKB; format: functional, cell-based, Homo sapiens; details: Homo sapiens, TGBC1TKB;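 also: growth inhibition of TGBC1TKB cells, read out by a cell viability assay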
Description: SANGER: Inhibition of human TGBC1TKB cell growth in a cell viability assay.

[48] = test system: U2OS; format: functional, cell-based, Homo sapiens, U-2-OS; details: Homo sapiens, U2OS;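 also: growth inhibition of human U-2-OS cells, determined with a cell viability assay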
Description: SANGER: Inhibition of human U-2-OS cell growth in a cell viability assay.

[49] = test system: UMC-11; format: functional, cell-based, Homo sapiens; details: Homo sapiens, UMC-11;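 also: growth inhibition of UMC-11 cells, read out with a cell viability assay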
Description: SANGER: Inhibition of human UMC-11 cell growth in a cell viability assay.

[50] = test system: no-10; format: functional, cell-based, Homo sapiens; details: Homo sapiens;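 also: growth inhibition of no-10 cells, read out with a cell viability assay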
Description: SANGER: Inhibition of human no-10 cell growth in a cell viability assay.

[51] = test system: COLO-320-HSR; format: functional, cell-based; details: Homo sapiens;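 also: growth inhibition of COLO-320-HSR cells, determined with a cell viability assay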
Description: SANGER: Inhibition of human COLO-320-HSR cell growth in a cell viability assay.

[52] = test system: COLO-679; format: functional, cell-based, Homo sapiens; details: Homo sapiens, COLO-679
Description: SANGER: Inhibition of human COLO-679 cell growth in a cell viability assay.

CN(c1ncccc1CNc1nc(Nc2ccc3c(c2)CC(=O)N3)ncc1C(F)(F)F)S(C)(=O)=O [PF-00562271]
pIC50 [1]: < 5.59 | pIC50 [2]: < 5.59 | pIC50 [3]: < 5.59 | pIC50 [4]: < 5.59 | pIC50 [5]: < 5.59 | pIC50 [6]: < 5.59 | pIC50 [7]: < 5.59 | pIC50 [8]: 5.69 | pIC50 [9]: < 5.59 | pIC50 [10]: < 5.59 | pIC50 [11]: < 5.59 | pIC50 [12]: < 5.59 | pIC50 [13]: < 5.59 | pIC50 [14]: 5.64 | pIC50 [15]: < 5.59 | pIC50 [16]: < 5.59 | pIC50 [17]: 6.41 | pIC50 [18]: < 5.59 | pIC50 [19]: < 5.59 | pIC50 [20]: 5.67 | pIC50 [21]: < 5.59 | pIC50 [22]: < 5.59 | pIC50 [23]: < 5.59 | pIC50 [24]: < 5.59 | pIC50 [25]: < 5.59 | pIC50 [26]: < 5.59 | pIC50 [27]: < 5.59 | pIC50 [28]: < 5.59 | pIC50 [29]: < 5.59 | pIC50 [30]: < 5.59 | pIC50 [31]: < 5.59 | pIC50 [32]: < 5.59 | pIC50 [33]: < 5.59 | pIC50 [34]: 5.79 | pIC50 [35]: < 5.59 | pIC50 [36]: < 5.59 | pIC50 [37]: 5.70 | pIC50 [38]: < 5.59 | pIC50 [39]: < 5.59 | pIC50 [40]: < 5.59 | pIC50 [41]: < 5.59 | pIC50 [42]: < 5.59 | pIC50 [43]: < 5.59 | pIC50 [44]: 5.63 | pIC50 [45]: 5.79 | pIC50 [46]: < 5.59 | pIC50 [47]: < 5.59 | pIC50 [48]: < 5.59 | pIC50 [49]: < 5.59 | pIC50 [50]: < 5.59 | pIC50 [51]: < 5.59 | pIC50 [52]: < 5.59

C=CCNC1=C2C[C@@H](C)C[C@H](OC)[C@H](O)[C@@H](C)/C=C(\C)[C@H](OC(N)=O)[C@@H](OC)/C=C\C=C(/C)C(=O)NC(=CC1=O)C2=O [TANESPIMYCIN]
pIC50 [1]: 6.76 | pIC50 [2]: 7.56 | pIC50 [3]: < 6.00 | pIC50 [4]: < 6.00 | pIC50 [5]: 7.31 | pIC50 [6]: < 6.00 | pIC50 [7]: < 6.00 | pIC50 [8]: < 6.00 | pIC50 [9]: 6.65 | pIC50 [10]: 7.46 | pIC50 [11]: < 6.00 | pIC50 [12]: < 6.00 | pIC50 [13]: 7.13 | pIC50 [14]: < 6.00 | pIC50 [15]: < 6.00 | pIC50 [16]: 6.61 | pIC50 [17]: 7.20 | pIC50 [18]: 6.52 | pIC50 [19]: < 6.00 | pIC50 [20]: < 6.00 | pIC50 [21]: 8.00 | pIC50 [22]: < 6.00 | pIC50 [23]: < 6.00 | pIC50 [24]: 7.27 | pIC50 [25]: < 6.00 | pIC50 [26]: < 6.00 | pIC50 [27]: 7.59 | pIC50 [28]: < 6.00 | pIC50 [29]: 6.93 | pIC50 [30]: < 6.00 | pIC50 [31]: 6.70 | pIC50 [32]: 7.44 | pIC50 [33]: 7.00 | pIC50 [34]: 6.53 | pIC50 [35]: 7.38 | pIC50 [36]: < 6.00 | pIC50 [37]: 6.53 | pIC50 [38]: 7.40 | pIC50 [39]: < 6.00 | pIC50 [40]: 6.68 | pIC50 [41]: 7.14 | pIC50 [42]: < 6.00 | pIC50 [43]: 6.68 | pIC50 [44]: 6.80 | pIC50 [45]: 7.10 | pIC50 [46]: 6.59 | pIC50 [47]: 7.09 | pIC50 [48]: 6.77 | pIC50 [49]: 6.26 | pIC50 [50]: < 6.00 | pIC50 [51]: < 6.00 | pIC50 [52]: 6.95
